Assay results: patent publication US9820990B2, “Methods of treating disorders associated with protein aggregation” (University of Pittsburgh—Of the Commonwealth System of …, priority 2009, dated 2017)
“Also recorded” adds a separate entry of the source. Structures can show the parent of a compound that is named as a salt. Where two headings read alike, the source gives them in different places.

How the values were obtained:
mCherry::LGG-1 = experiment: Induction of autophagy in transgenic animals expressing Pnhx-2mCherry::lgg-1; format: in vivo, C. elegans; details: compared with well-fed animals treated with DMSO (diffuse)
From the text: FIG. 18A-E. Induction of autophagy by hit compounds. Images of transgenic animals expressing Pnhx-2mCherry:lgg-1 treated with various compounds are shown. Images were acquired using a Nikon instruments TiEclipse widefield light microscope fitted with a 20× Plan Apochromat objective. Images were then deconvolved using Volocity (Perkin Elmer, v 5.3.2). Deconvolved z planes were then merged to a single plane. Well-fed animals treated with DMSO (A) show a diffuse mCherry expression throughout the intestine. […] Starved (E) animals are included as a positive control for autophagy. Scale bar, 50 μm.
Macroautophagy is a cellular process in which a double membrane envelops cytosolic components or organelles (autophagosome) and delivers this material to a lysosome (autophagolysosome) for degradation and recycling (reviewed in 79). LGG-1/LC3/Atg8 is a diffuse cytosolic protein that participates in autophagosome formation and becomes inserted into the autophagosome membrane (80). Upon autophagosome formation, LGG-1 fused to mCherry changes its cytoplasmic distribution pattern from diffuse (lower fluorescence intensity) to punctate (higher fluorescence intensity) (80). To determine whether the imaging system could follow this process, a strain expressing a Pnhx-2mCherry::lgg-1 transgene was examined after starvation, a potent inducer of intestinal autophagosome formation (81). In well-fed animals, the diffuse cytoplasmic fluorescence in the intestinal cells was well above that of the N2 background (FIGS. 13K-13L, 13O-13Q). To detect mCherry::LGG-1 puncta, the diffuse fluorescence intensity of the well-fed animals was used to calibrate a threshold from which the SpotDetector BioApplication could detect any high-intensity spots. Although basal autophagy in the well-fed animals yielded a few spots (FIG. 13O), the large number of distinct puncta in the starved animals (FIGS. 13M, 13N, 13O-Q) indicated a marked increase in autophagy that was detected best by a statistically significant increase in spot count or total spot intensity per animal (FIGS. 13O and 13Q, respectively). […]

sGFP::ATZ [1] = experiment: LOPAC library high-content primary screen for sGFP::ATZ accumulation in transgenic animals; format: in vivo, C. elegans; details: for Rank-score: 24 h
sGFP::ATZ [2] = experiment: Hit compound characterization: dose-response in the sGFP::ATZ HCS assay; format: in vivo, C. elegans; parameters: key to dose-dependent response: c: Compound demonstrated a dose-dependent response.; Compound failed to demonstrate a dose-dependent response; details: for degradation of aggregated ATZ protein: Caenorhabditis elegans model system; for effect on sGFP::ATZ accumulation: dose-response, 0-100 μM; for dose-dependent response: retest at 0-100 μM, 24 or 48 hours; for GFP+ inclusions in ATZ worms: at 10 μM
Experimental: Imaging of animals using the ArrayScan VTI: Prior to imaging, worms were anesthetized by adding 30 μl of 0.02 M NaN3 in PBS to each well. Plates were resealed, inverted twice, and incubated for 5 minutes at room temperature. Images were acquired with the ArrayScan VTI HCS Reader fitted with a 2.5× objective and a 0.63× coupler using a 2-channel (TRITC and GFP) assay. Real-time analysis was performed using the SpotDetector BioApplication optimized to quantify fluorescent protein expression in C. elegans. Image acquisition and analysis of a 384-well plate was completed in <45 minutes. The total number of animals in the well was determined by counting the number of red heads (Pmyo-2mRFP) in the TRITC channel. Total spot area or total spot intensity was determined by quantifying the GFP-positive spots in the GFP channel. Total spot area or total spot intensity per animal was determined by dividing the values from the GFP channel by that from the TRITC channel.
Hit compound characterization: Compounds that were identified as potential hits were purchased (if available) and retested for verification. […] Compounds that produced a response in a dose-dependent manner were further tested for a time-dependent response. Compound dose-response curves were performed by dispensing 15 μl of a 4× stock solution into 384-well plates containing 15 μl of assay medium (see above). Thirty-five animals were sorted into each well bringing the volume to ˜60 μl. The final compound concentrations in each well varied from 0-100 μM. Assay plates were incubated in a 22° C. incubator for 24 or 48 hours. Each compound was tested in quadruplicate in at least 2 independent experiments.
Statistical evaluation: Statistical evaluation of data was performed using Prism® (Graphpad Software). The significance of actual and predicted data in FIGS. 12, 14 and 15 was determined using a linear regression analysis and comparing the slope and goodness-of-fit (r2) values. Statistical significance of the spot count, spot area and spot intensity values between N2 (wild-type) and various transgenic lines in FIG. 13 and dose-response in FIG. 17 was determined using an unpaired, one-tailed, Student's t-test.
Compound screen: To test the HCS protocol, a pilot drug screen was performed using the library of pharmacologically active compounds (LOPAC1280™ 1280 compounds). Tight gating parameters for total fluorescence were used to sort 35 young adult Pnhx2sGFP::ATZ animals into wells of 384-well plates containing […] of a LOPAC compound and 0.5% DMSO. Pnhx2sGFP::ATZ animals incubated with 0.5% DMSO served as untreated controls and were placed in the first-two and last-two columns of each plate. In a representative experiment, plate 1 of the LOPAC library was set-up for screening on day 1, and 3 other plates were set-up on the next day. After 24 incubation at 25° C., animals were immobilized by the addition of NaAz and placed in the ArrayScan VTI for automated imaging. To examine for systematic errors, the raw data (total spot area/animal) were depicted as a plate-well scatter plot (FIG. 17A). […] This difference reflects a wider sort-window used to collect animals on day 1 in comparison to that used on day 2. As the average values of the negative controls and that of the sample wells were similar, we combined the control and samples wells for normalization and to identify potential hits using the z-score (FIG. 17B). The ArrayScan VTI reads microtiter plates by rows, alternating from left-to-right, and then right-to-left. For some assays, we noted that the control fluorescence values would drift upwards slightly in rows towards the bottom of the plate. This drift appeared to correlate with an increase in chamber temperature during the scanning period and was minimized by cooling the chamber with a fan or shortening the read times by using 2.5× objective with a 0.6 coupler. Nonetheless, intra-plate variation was controlled for by presenting the data as a B-score (FIG. 17C). […]

C. elegans = details: 0-100 mM, 4 hours, SYTOX Green uptake
Experimental: Animals were washed 5 times with M9 media and stained with 2 μM SYTOX™ Green (Invitrogen) for 5 minutes at room temperature (84). Approximately 50 animals/well were dispensed into an optical bottom black walled 96 well plate (Nunc Thermo Fisher Scientific, Rochester, N.Y., USA). Wells were imaged using the ArrayScan VTI over the entire area of the well in brightfield, red (TRITC) and green (GFP) channels at 50× magnification. The total number of animals and the number of dead bodies were determined by counting red and green spots, respectively. Data from SpotDetector algorithm were confirmed by manual counting of the live and dead animals. Percent dead=(the number of green objects detected/total number of animals)×100.
To determine whether the system could discriminate dead from live intestinal cells, we scanned and analyzed young adult animals exposed to different concentrations of NaAz in the presence SYTOX® Green.

ATZ in HTO/Z cells = experiment: HTO/Z cells, Western blot analysis for AT; format: cell-based, human; details: for ATZ levels in the cell line: HTO/Z mammalian cell line model of AT deficiency
Experimental: The cells were incubated for 48 hrs with fluphenazine in several different concentrations and then subjected to Western blot analysis for AT. […] The effect is evident at doses of 1-10 μM. […] This is different from CBZ which appears to affect autophagic as well as proteasomal degradation.

ATZ = details: mouse model of AT deficiency; cited from earlier work
[3] = among compounds that decreased ATZ accumulation, based on relative rank-scores
[4] = average of compound rankings by ascending B-score from two independent screens, 50 μM, <110 decreased, >1225 increased sGFP::ATZ inclusions

SMILES	mCherry::LGG-1 distribution pattern (autophagic activity) (mCherry::LGG-1)	Overall rank-order (sGFP::ATZ [1]; [3])	Rank-score (sGFP::ATZ [1]; [4])	degradation of aggregated ATZ protein (sGFP::ATZ [2])	effect on sGFP::ATZ accumulation (sGFP::ATZ [2])	dose-dependent response (sGFP::ATZ [2])	further results
CC12C(=O)OC(=O)C1(C)C1CCC2O1 (stereo not shown) [cantharidin, 2,6-Dimethyl-4,10-dioxatricyclo-[5.2.1.02,6]decane-3,5-dione]	markedly punctate distribution pattern indicative of increased autophagic activity	2	2.5	able to promote degradation of aggregated ATZ protein	dose-dependant decrease in sGFP::ATZ accumulation; also recorded: decreased	cantharidin^c	concentration at which an anti-protein aggregate effect was achieved (sGFP::ATZ [2]; C. elegans assay): 100 µM; effect on sGFP::ATZ accumulation (sGFP::ATZ [2]; listed as Cantharidin): dose-dependent decrease in sGFP::ATZ accumulation
[N-]=[N+]=[N-] [sodium azide]	–	–	–	–	–	–	number of dead animals (C. elegans): dose dependent increase
OCCN1CCN(CCCN2c3ccccc3Sc3ccc(C(F)(F)F)cc32)CC1 [fluphenazine dihydrochloride, 4-[3-[2-(Trifluoromethyl)phenothiazin-10-yl]propyl]-1-piperazineethanol]	markedly punctate distribution pattern indicative of increased autophagic activity	–	–	able to promote degradation of aggregated ATZ protein	dose-dependent decrease in sGFP::ATZ accumulation; also recorded: dose-dependant decrease in sGFP::ATZ accumulation; also recorded: dose-dependent effect; also recorded: decreased	fluphenazine dihydrochloride^c	Overall rank-order (sGFP::ATZ [1]): 23; Rank-score (sGFP::ATZ [1]; 50 µM): 81.0; GFP+ inclusions in ATZ worms (sGFP::ATZ [2]): almost complete elimination of the inclusions; doses at which the decrease in insoluble ATZ is evident (ATZ in HTO/Z cells; HTO/Z cells, 48 hrs): 1 to 10 µM; levels of the control GAPDH (ATZ in HTO/Z cells; HTO/Z cells, 48 hrs): no significant change; soluble ATZ (ATZ in HTO/Z cells; HTO/Z cells, 48 hrs): increase; insoluble ATZ levels (ATZ in HTO/Z cells; HTO/Z cells, 48 hrs, several concentrations): dose-dependent decrease; ATZ levels in the cell line (ATZ in HTO/Z cells): effective in reducing ATZ levels; ATZ levels in the cell line (ATZ in HTO/Z cells; listed as fluphenzine hydrochloride): decreased ATZ
CC(=O)O[C@H]1C(=O)[C@@]2(C)[C@H]([C@H](OC(=O)c3ccccc3)[C@]3(O)C[C@H](OC(=O)[C@H](O)[C@@H](NC(=O)c4ccccc4)c4ccccc4)C(C)=C1C3(C)C)[C@]1(OC(C)=O)CO[C@@H]1C[C@@H]2O [taxol, 5β,20-Epoxy-1,2α,4,7β, 10β,13α-hexahydroxytax-11-en-9-one 4,10-diacetate 2-benzoate 13-ester with (2R,3S)—N-benzoyl-3-phenylisoserine]	–	–	–	able to promote degradation of aggregated ATZ protein	–	taxol^c	Overall rank-order (sGFP::ATZ [1]): 19; Rank-score (sGFP::ATZ [1]; 50 µM): 73.5
O=c1[nH]c2ccccc2n1C1CCN(CCCC(c2ccc(F)cc2)c2ccc(F)cc2)CC1 [pimozide, 1-[1-[4,4-bis(4-fluorophenyl)butyl]-4-piperidyl]-1,3-dihydrobenzoimidazol-2-one]	markedly punctate distribution pattern indicative of increased autophagic activity	33	107.5	able to promote degradation of aggregated ATZ protein	dose-dependent decrease in sGFP::ATZ accumulation; also recorded: dose-dependant decrease in sGFP::ATZ accumulation; also recorded: dose-dependent effect; also recorded: decreased	pimozide^c	GFP+ inclusions in ATZ worms (sGFP::ATZ [2]): almost complete elimination of the inclusions; ATZ levels in the cell line (ATZ in HTO/Z cells): effective in reducing ATZ levels; also recorded: decreased ATZ
CC/C(=C(\c1ccccc1)c1ccc(OCCN(C)C)cc1)c1ccccc1 [tamoxifen citrate, (Z)-2-[4-(1,2-diphenylbut-1-enyl)phenoxy]-N,N-dimethylethylamine]	–	24	83.5	able to promote degradation of aggregated ATZ protein	dose-dependant decrease in sGFP::ATZ accumulation	tamoxifen citrate^c	–
CO[C@@]1(NC(=O)CSCC#N)C(=O)N2C(C(=O)O)=C(CSc3nnnn3C)CS[C@@H]21 [cefmetazole sodium]	–	9	51.0	–	–	cefmetazole sodium^d	–
CC(=O)c1c(O)c(C)c(O)c(Cc2c(O)c3c(c(C(=O)/C=C/c4ccccc4)c2O)OC(C)(C)C=C3)c1O [rottlerin]	–	–	1229.5	–	–	rottlerin^c	Overall rank-order (sGFP::ATZ [1]; among compounds that increased ATZ accumulation, based on relative rank-scores): 15
NC(=O)N1c2ccccc2C=Cc2ccccc21 [carbamazepine]	–	–	–	–	–	–	amount of ATZ accumulated in the liver (ATZ): decrease
